# pEC50, pIC50: −log10 of the molar value.
# Legend:
# [1] = system: Huh-7 cells containing HCV Con1 subgenomic replicon (GS4.1 cells); experiment: HCV Replicon Assay (NS4A ELISA); format: cell-based; details: Hepatitis C virus, 72 hr, NS4A protein expression by ELISA
# Method: General procedure: Huh-7 cells containing HCV Con1 subgenomic replicon (GS4.1 cells) were grown in Dulbecco's Modified Eagle Medium (DMEM) supplemented with 10% fetal bovine serum (FBS), 2 mM L-glutamine, 110 mg/L sodium pyruvate, 1X non-essential amino acids, 100 U/mL penicillin-streptomycin, and 0.5 mg/mL G418 (Invitrogen). For dose-response testing, the cells were seeded in 96-well plates at 7.5×10^3 cells/well in a volume of 50 μL, and incubated at 37° C./5% CO2. Three hours after plating, 50 μL of ten 2-fold serial dilutions of compounds (highest concentration, 75 μM) were added, and cell cultures were incubated at 37° C./5% CO2 in the presence of 0.5% DMSO. Alternatively, compounds were tested at a single concentration of 15 μM. In all cases, Huh-7 cells lacking the HCV replicon served as negative control. The cells were incubated in the presence of compounds for 72 hr after which they were monitored for expression of the NS4A protein by enzyme-linked immunosorbent assay (ELISA). For this, the plates were then fixed for 1 min with acetone/methanol (1:1, v/v), washed twice with phosphate-buffered saline (PBS), 0.1% Tween 20, blocked for 1 hr at room temperature with TNE buffer containing 10% FBS and then incubated for 2 hr at 37° C. with the anti-NS4A mouse monoclonal antibody A-236 (ViroGen) diluted in the same buffer. After washing three times with PBS, 0.1% Tween 20, the cells were incubated 1 hr at 37° C. with anti-mouse immunoglobulin G-peroxidase conjugate in TNE, 10% FBS. After washing as described above, the reaction was developed with O-phenylenediamine (Zymed). The reaction was stopped after 30 min with 2 N H2SO4, and absorbance was read at 492 nm using Sunrise Tecan spectrophotometer. EC50 values were determined from the % inhibition versus concentration data using a sigmoidal non-linear regression analysis based on four parameters with Tecan Magellan software. When screening at a single concentration, the results were expressed as % inhibition at 15 μM.
# HCV NS3-NS4A protease = target: T1, HCV NS3-NS4A protease (Hepatitis C virus genotype 1a, UniProt P27958); experiment: HCV Protease Assay (SensoLyte 620 HCV Protease Assay kit); format: biochemical; details: 1.2 nM HCV NS3-NS4A protease, 5% DMSO, 60 min at room temperature
# T1 construct: made in house
# T1 sequence (P27958 1027-1208): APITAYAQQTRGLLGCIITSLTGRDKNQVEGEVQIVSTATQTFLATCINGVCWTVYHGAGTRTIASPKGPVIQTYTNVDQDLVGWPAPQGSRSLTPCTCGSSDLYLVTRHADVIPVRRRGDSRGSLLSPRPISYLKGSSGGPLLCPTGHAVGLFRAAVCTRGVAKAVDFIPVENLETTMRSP
# Method: General procedure: Measurement of the inhibitory effect of compounds on HCV protease activity was performed with the SensoLyte™ 620 HCV Protease Assay kit from AnaSpec, Inc. (San Jose, Calif.) under conditions described by the supplier using 1.2 nM HCV NS3-NS4A protease, which was obtained according to Taremi et al. (Protein Science, 1998, 7, 2143-2149). The compounds were tested at a variety of concentrations in assay buffer containing a final DMSO concentration of 5%. Reactions were allowed to proceed for 60 min at room temperature and fluorescence measurements were recorded with a Tecan Infinity Spectrofluorimeter. The IC50 values were determined from the percent inhibition versus concentration data using a sigmoidal non-linear regression analysis based on four parameters with Tecan Magellan software.
# [2] = Cytotoxicity evaluation (Cell Titer 96 AQueous One Solution Cell Proliferation Assay); format: cell-based; details: human; GS4.1 cells, cellular viability
# Method: For cytotoxicity evaluation, GS4.1 cells were treated with compounds as described above and cellular viability was monitored using the Cell Titer 96 AQueous One Solution Cell Proliferation Assay (Promega). CC50 values were determined from the % cytotoxicity versus concentration data with Tecan Magellan software as described above.
SMILES,pEC50 [1],pIC50 (HCV NS3-NS4A protease),CC50 [2]
COc1ccc2c(OCCC3NC(=O)N(C)CCCC/C=C\C4CC4(C(=O)NS(=O)(=O)C4(F)CC4)NC3=O)cc(-c3nc(C(C)C)cs3)nc2c1Cl (stereo not drawn),5.00 to 7.00,> 7.00,> 1000 µM
COc1ccc2c(OCC[C@@H]3NC(=O)N(C)CCCC/C=C\[C@@H]4C[C@@]4(C(=O)NS(=O)(=O)N4CCC(F)(F)C4)NC3=O)cc(-c3nc(C(C)C)cs3)nc2c1Cl,5.00 to 7.00,5.00 to 7.00,> 1000 µM
COc1ccc2c(OCC[C@@H]3NC(=O)N(C)CCCC/C=C\[C@@H]4C[C@@]4(C(=O)NS(=O)(=O)C4(CC5CC5)CC4)NC3=O)cc(-c3nc(C(C)C)cs3)nc2c1Cl,5.00 to 7.00,> 7.00,> 1000 µM
COc1ccc2c(OCC[C@@H]3NC(=O)N(C)CCCC/C=C\[C@@H]4C[C@@]4(C(=O)NS(=O)(=O)C4(C)CC4)NC3=O)cc(-c3nc(C(C)C)cs3)nc2c1,> 7.00,> 7.00,10 to 1000 µM
CCn1ccc(-c2cc(OCC[C@@H]3NC(=O)N(C)CCCC/C=C\[C@@H]4C[C@@]4(C(=O)OS(=O)(=O)C4(C)CC4)NC3=O)c3ccc(OC)c(C)c3n2)n1,5.00 to 7.00,> 7.00,> 1000 µM
COc1ccc2c(OCCC3NC(=O)N(C)CCCC/C=C\C4CC4(C(=O)NS(=O)(=O)N(C)C)NC3=O)cc(-c3nc(C(C)C)cs3)nc2c1Cl (stereo not drawn),> 7.00,> 7.00,> 1000 µM
COc1ccc2c(OCC[C@@H]3NC(=O)N(C)CCCC/C=C\[C@@H]4C[C@@]4(C(=O)NS(=O)(=O)C4(C)CC4)NC3=O)cc(-c3ccn(CC(C)C)n3)nc2c1C,5.00 to 7.00,> 7.00,> 1000 µM
COc1ccc2c(OCC[C@@H]3NC(=O)N(C)CCCC/C=C\[C@@H]4C[C@@]4(C(=O)NS(=O)(=O)C4(C)CC4)NC3=O)cc(-n3ccc(C(C)C)n3)nc2c1C,> 7.00,> 7.00,> 1000 µM
COc1ccc2c(OCCC3NC(=O)N(C)CCCC/C=C\C4CC4(C(=O)NS(=O)(=O)N4CCOCC4)NC3=O)cc(-c3nc(C(C)C)cs3)nc2c1Cl (stereo not drawn),5.00 to 7.00,5.00 to 7.00,> 1000 µM
COc1ccc2c(OCC[C@@H]3NC(=O)N(C)CCCC/C=C\[C@@H]4C[C@@]4(C(=O)NS(=O)(=O)N4CCC[C@H]4C#N)NC3=O)cc(-c3nc(C(C)C)cs3)nc2c1Cl,5.00 to 7.00,5.00 to 7.00,> 1000 µM
COc1ccc2c(OCC[C@@H]3NC(=O)N(C)CCCC/C=C\[C@@H]4C[C@@]4(C(=O)NS(=O)(=O)C4(C)CC4)NC3=O)cc(-n3ccc(C(F)(F)F)n3)nc2c1Cl,> 7.00,> 7.00,> 1000 µM
COc1ccc2c(OCC[C@@H]3NC(=O)N(C)CCCC/C=C\[C@@H]4C[C@@]4(C(=O)NS(=O)(=O)C4(C)CC4)NC3=O)cc(-c3ccn(CCC(C)C)n3)nc2c1C,5.00 to 7.00,> 7.00,> 1000 µM
COc1ccc2c(OCCC3NC(=O)N(C)CCCC/C=C\C4CC4(C(=O)NS(=O)(=O)C4(C)CC4)NC3=O)cc(-c3nc(C(C)C)cs3)nc2c1F (stereo not drawn),5.00 to 7.00,> 7.00,> 1000 µM
COc1ccc2c(OCC[C@@H]3NC(=O)N(C)CCCC/C=C\[C@@H]4C[C@@]4(C(=O)NS(=O)(=O)C4(C)CC4)NC3=O)cc(-c3csc(NC(C)C)n3)nc2c1,5.00 to 7.00,> 7.00,> 1000 µM
COc1ccc2c(OCCC3NC(=O)N(C)CCCC/C=C\C4CC4(C(=O)NS(=O)(=O)C4(C)CC4)NC3=O)cc(-c3nc(C(C)C)cs3)nc2c1Br (stereo not drawn),> 7.00,> 7.00,> 1000 µM
COc1ccc2c(OCC[C@@H]3NC(=O)N(C)CCCC/C=C\[C@@H]4C[C@@]4(C(=O)S(=O)(=O)C4(C)CC4)NC3=O)cc(-c3ccn(Cc4ccccc4)n3)nc2c1C,5.00 to 7.00,> 7.00,> 1000 µM
COc1ccc2c(OCC[C@@H]3NC(=O)N(C)CCCC/C=C\[C@@H]4C[C@@]4(C(=O)O)NC3=O)cc(-c3ccccc3)nc2c1,3.00 to 5.00,5.00 to 7.00,> 1000 µM
COc1ccc2c(OCC[C@@H]3NC(=O)N(C)CCCC/C=C\[C@@H]4C[C@@]4(C(=O)NS(=O)(=O)C4(C)CC4)NC3=O)cc(-c3cc(C(F)(F)F)nn3C)nc2c1C,5.00 to 7.00,> 7.00,> 1000 µM
COc1ccc2c(OCC[C@@H]3NC(=O)N(C)CCCC/C=C\[C@@H]4C[C@@]4(C(=O)NS(=O)(=O)C4(C)CC4)NC3=O)cc(-c3nc(C(C)C)cs3)nc2c1Cl,> 7.00,> 7.00,> 1000 µM
COc1ccc2c(OCC[C@@H]3NC(=O)N(C)CCCC/C=C\[C@@H]4C[C@@]4(C(=O)NS(=O)(=O)C4(C)CC4)NC3=O)cc(-n3ccc(C(C)C)n3)nc2c1Cl,> 7.00,> 7.00,> 1000 µM
COc1ccc2c(OCC[C@@H]3NC(=O)N(C)CCCC/C=C\[C@@H]4C[C@@]4(C(=O)NS(=O)(=O)C4(C)CC4)NC3=O)cc(-c3nc(C(C)C)cs3)nc2c1C,> 7.00,> 7.00,> 1000 µM
COc1ccc2c(OCC[C@@H]3NC(=O)N(C)CCCC/C=C\[C@@H]4C[C@@]4(C(=O)NS(=O)(=O)C4CC4)NC3=O)cc(-c3ccccc3)nc2c1,5.00 to 7.00,> 7.00,> 1000 µM
COc1ccc2c(OCC[C@@H]3NC(=O)N(C)CCCC/C=C\[C@@H]4C[C@@]4(C(=O)NS(=O)(=O)C4(C)CC4)NC3=O)cc(-c3ccn(CCN4CCOCC4)n3)nc2c1C,5.00 to 7.00,> 7.00,> 1000 µM
CCC1(S(=O)(=O)NC(=O)[C@@]23C[C@H]2/C=C\CCCCN(C)C(=O)N[C@@H](CCOc2cc(-c4nc(C(C)C)cs4)nc4c(Cl)c(OC)ccc24)C(=O)N3)CC1,> 7.00,> 7.00,> 1000 µM
CCCn1ccc(-c2cc(OCC[C@@H]3NC(=O)N(C)CCCC/C=C\[C@@H]4C[C@@]4(C(=O)NS(=O)(=O)C4(C)CC4)NC3=O)c3ccc(OC)c(C)c3n2)n1,5.00 to 7.00,> 7.00,> 1000 µM
COc1ccc2c(OCCC3NC(=O)N(C)CCCC/C=C\C4CC4(C(=O)NS(=O)(=O)C4(C#N)CC4)NC3=O)cc(-c3nc(C(C)C)cs3)nc2c1Cl (stereo not drawn),5.00 to 7.00,> 7.00,> 1000 µM
COc1ccc2c(OCC[C@@H]3NC(=O)N(C)CCCC/C=C\[C@@H]4C[C@@]4(C(=O)NS(=O)(=O)C4(I)CC4)NC3=O)cc(-c3nc(C(C)C)cs3)nc2c1C,5.00 to 7.00,> 7.00,> 1000 µM
COc1ccc2c(C(=O)OCC[C@@H]3NC(=O)N(C)CCCC/C=C\[C@@H]4C[C@@]4(C(=O)NS(=O)(=O)C4CC4)NC3=O)cc(-c3ccccc3)nc2c1,< 3.00,5.00 to 7.00,> 1000 µM
C#C[C@@H]1CCCN1S(=O)(=O)NC(=O)[C@@]12C[C@H]1/C=C\CCCCN(C)C(=O)N[C@@H](CCOc1cc(-c3nc(C(C)C)cs3)nc3c(Cl)c(OC)ccc13)C(=O)N2,5.00 to 7.00,> 7.00,> 1000 µM

# From patent US20090047244A1, “MACROCYCLIC SERINE PROTEASE INHIBITORS I” (Idenix Pharmaceuticals, Inc., priority 2007, published 2009)
